From ChEMBL document CHEMBL2074264, “Expression cloning and characterization of ROAT1. The basolateral organic anion transporter in rat kidney” (J Biol Chem, 1997)
Values belong to the molecule of their own block, whether it stands above or below them.

Legend:
[1] = biological target: T1, Solute carrier family 22 member 6 (Rattus norvegicus, UniProt O35956); test: TP_TRANSPORTER: inhibition of PAH uptake (PAH: 50 uM, Urate; 1000 uM) in Xenopus laevis oocytes; format: functional, cell-based; details: oocyte
T1 sequence (O35956 whole entry): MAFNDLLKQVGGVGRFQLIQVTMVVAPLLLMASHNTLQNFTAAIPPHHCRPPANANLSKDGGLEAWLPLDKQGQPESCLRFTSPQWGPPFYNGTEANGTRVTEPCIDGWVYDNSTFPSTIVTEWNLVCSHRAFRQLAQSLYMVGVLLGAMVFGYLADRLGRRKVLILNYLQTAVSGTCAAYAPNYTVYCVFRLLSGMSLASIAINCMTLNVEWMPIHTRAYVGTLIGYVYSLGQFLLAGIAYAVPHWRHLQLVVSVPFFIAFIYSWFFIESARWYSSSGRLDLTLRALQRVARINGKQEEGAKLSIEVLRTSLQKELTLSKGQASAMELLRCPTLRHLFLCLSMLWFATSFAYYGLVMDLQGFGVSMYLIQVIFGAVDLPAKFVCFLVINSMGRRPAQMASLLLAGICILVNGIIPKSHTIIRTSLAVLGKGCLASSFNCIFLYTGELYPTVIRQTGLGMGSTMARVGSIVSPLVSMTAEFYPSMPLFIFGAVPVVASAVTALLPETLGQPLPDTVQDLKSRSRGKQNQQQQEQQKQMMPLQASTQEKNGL

[2] = substrate: Nc1ccc(C(=O)NCC(=O)O)cc1; test: cells, lysate or membranes named

Activity [1]: is not an inhibitor [-]
Molecule: O=c1[nH]c(=O)c2[nH]c(=O)[nH]c2[nH]1 [URIC ACID]

B1: Solute carrier family 22 member 6 (Rattus norvegicus) (protein)
chain: T1 sequence (O35956 whole entry)
Km [2]: 70 µM
